Like-named read-outs stand apart in the source and are kept apart here.
Assays:
DDR1 = DDR1 (Homo sapiens (Human), UniProt Q08345); experiment: DDR1 binding assay (LanthaScreen Europium Kinase Binding assay)
Protocol: (§1) DDR1 and DDR2 binding assays were performed using Life Technologies LanthaScreen™ Europium Kinase Binding assay. The compounds were incubated with 5 nM DDR1 (Carna Biosciences) or 5 nM DDR2 (Life Technologies) for 1 h at rt in white 384-well OptiPlate (PerkinElmer), containing 20 nM or 10 nM Kinase Tracer 178 respectively and 2 nM Europium labelled anti-GST antibody (Life Technologies) in assay buffer (50 mM HEPES pH 7.5, 10 mM MgCI2, 1 mM EGTA and 0.01% BRIJ35). The ratio of fluorescence emission 665 nm/615 nm after excitation at 340 nm was obtained using the Tecan Spark 20M plate reader. IC50 values were determined in GraphPad Prism 7.0 software, using 4 parameter model: log(inhibitor) vs. response. IC50 values were converted in Ki using the Cheng-Prusoff equation (Ki=IC50/(1+[Tracer]/Kd).

DDR2 = DDR2 (Homo sapiens (Human), UniProt Q16832); experiment: DDR2 binding assay (LanthaScreen Europium Kinase Binding assay)
Chain of DDR2 (Q16832 22-855): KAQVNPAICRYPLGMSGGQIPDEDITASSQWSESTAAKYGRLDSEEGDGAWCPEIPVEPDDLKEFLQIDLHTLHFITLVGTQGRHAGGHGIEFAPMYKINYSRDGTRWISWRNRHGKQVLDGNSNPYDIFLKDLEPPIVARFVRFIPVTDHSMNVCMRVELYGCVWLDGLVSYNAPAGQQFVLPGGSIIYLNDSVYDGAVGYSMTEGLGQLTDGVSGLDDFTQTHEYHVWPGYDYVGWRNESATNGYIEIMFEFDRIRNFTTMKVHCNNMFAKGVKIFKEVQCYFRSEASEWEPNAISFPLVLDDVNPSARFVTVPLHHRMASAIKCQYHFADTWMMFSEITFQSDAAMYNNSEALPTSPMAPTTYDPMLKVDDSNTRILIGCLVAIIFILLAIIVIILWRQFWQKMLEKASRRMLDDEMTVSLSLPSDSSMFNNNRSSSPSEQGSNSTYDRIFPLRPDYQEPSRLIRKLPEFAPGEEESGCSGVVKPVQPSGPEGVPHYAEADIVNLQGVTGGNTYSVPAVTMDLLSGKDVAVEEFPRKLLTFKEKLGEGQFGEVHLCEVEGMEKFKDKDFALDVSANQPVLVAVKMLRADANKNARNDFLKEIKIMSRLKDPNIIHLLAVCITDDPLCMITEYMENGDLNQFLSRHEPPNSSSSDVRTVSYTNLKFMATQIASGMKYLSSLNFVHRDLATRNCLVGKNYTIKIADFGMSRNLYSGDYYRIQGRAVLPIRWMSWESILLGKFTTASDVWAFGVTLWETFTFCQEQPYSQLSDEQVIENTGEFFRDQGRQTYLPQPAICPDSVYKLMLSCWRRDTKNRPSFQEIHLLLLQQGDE
Protocol: as §1

[1] = 5 nM DDR1, 20 nM Kinase Tracer 178, 1 h at rt, Ki from IC50 by Cheng-Prusoff, read-out: Ki DDR1
[2] = 5 nM DDR2, 10 nM Kinase Tracer 178, 1 h at rt, Ki from IC50 by Cheng-Prusoff, read-out: Ki DDR2

Chain of DDR1 (Q08345 19-913): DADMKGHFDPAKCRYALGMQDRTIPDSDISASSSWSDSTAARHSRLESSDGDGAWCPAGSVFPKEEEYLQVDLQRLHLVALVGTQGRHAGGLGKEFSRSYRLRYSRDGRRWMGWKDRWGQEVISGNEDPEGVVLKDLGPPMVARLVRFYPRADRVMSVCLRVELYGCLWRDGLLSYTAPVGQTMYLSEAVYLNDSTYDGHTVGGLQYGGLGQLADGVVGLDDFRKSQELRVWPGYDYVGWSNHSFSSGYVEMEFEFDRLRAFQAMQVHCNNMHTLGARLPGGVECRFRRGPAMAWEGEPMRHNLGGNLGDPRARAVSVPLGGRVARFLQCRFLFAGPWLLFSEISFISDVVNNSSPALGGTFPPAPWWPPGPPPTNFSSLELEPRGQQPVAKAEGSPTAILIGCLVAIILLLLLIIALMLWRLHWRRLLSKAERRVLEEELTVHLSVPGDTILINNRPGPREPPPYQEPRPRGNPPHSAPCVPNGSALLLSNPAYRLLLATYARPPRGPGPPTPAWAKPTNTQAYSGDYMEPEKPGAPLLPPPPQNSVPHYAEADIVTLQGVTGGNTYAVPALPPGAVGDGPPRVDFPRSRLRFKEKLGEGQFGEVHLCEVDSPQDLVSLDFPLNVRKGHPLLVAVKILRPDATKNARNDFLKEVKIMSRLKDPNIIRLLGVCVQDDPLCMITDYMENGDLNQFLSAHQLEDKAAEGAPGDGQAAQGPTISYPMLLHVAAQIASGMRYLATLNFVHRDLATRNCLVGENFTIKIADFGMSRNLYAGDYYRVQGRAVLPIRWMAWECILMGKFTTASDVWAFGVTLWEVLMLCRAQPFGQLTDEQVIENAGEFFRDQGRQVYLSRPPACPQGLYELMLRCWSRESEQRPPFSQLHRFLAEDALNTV

Compound	Ki (DDR1; [1])	Ki (DDR2; [2])	Ki (DDR1; same binding assay, numeric values, read-out: DDR1 Ki)	Ki (DDR2; same binding assay, numeric values, read-out: DDR2 Ki)
Cc1ccc(C(=O)Nc2cncc(C(F)(F)F)c2)cc1OC1CN(c2cnn3ccccc23)C1 [Example 168, 4-methyl-3-((1-(pyrazolo[1,5-a]pyridin-3-yl)azetidin-3-yl)oxy)-N-(5-(trifluoromethyl)pyridin-3-yl)benzamide]	< 5 nM	< 5 nM		
CNc1ccn2ncc(N3CC(Oc4cc(C(=O)Nc5cncc(C(F)(F)F)c5)ccc4C)C3)c2n1 [Example 141, 4-methyl-3-((1-(5-(methylamino)pyrazolo[1,5-a]pyrimidin-3-yl)azetidin-3-yl)oxy)-N-(5-(trifluoromethyl)pyridin-3-yl)benzamide]	< 5 nM	5 to 25 nM		
Cc1ccc(C(=O)Nc2cncc(C(F)(F)F)c2)cc1N(C)C1CN(c2cnn3ccncc23)C1 [Example 151, 4-methyl-3-(methyl(1-(pyrazolo[1,5-a]pyrazin-3-yl)azetidin-3-yl)amino)-N-(5-(trifluoromethyl)pyridin-3-yl)benzamide]	< 5 nM	5 to 25 nM		
Cc1ccc(C(=O)Nc2cncc(C(F)(F)F)c2)cc1NC1CN(c2cnn3cccnc23)C1 [Example 148, 4-methyl-3-((1-(pyrazolo[1,5-a]pyrimidin-3-yl)azetidin-3-yl)amino)-N-(5-(trifluoromethyl)pyridin-3-yl)benzamide]	5 to 25 nM	5 to 25 nM		
Cc1ccc(C(=O)Nc2cncc(C(F)(F)F)c2)cc1OC1CN(c2cnn3ccc(N4CCC(CO)CC4)nc23)C1 [Example 180, 3-((1-(5-(4-(hydroxymethyl)piperidin-1-yl)pyrazolo[1,5-a]pyrimidin-3-yl)azetidin-3-yl)oxy)-4-methyl-N-(5-(trifluoromethyl)pyridin-3-yl)benzamide]	5 to 25 nM	> 100 nM		
Cc1ccc(C(=O)Nc2cncc(C(F)(F)F)c2)cc1NC1CN(C(=O)c2cnn3ccncc23)C1 [Compound C1, 4-methyl-3-((1-(pyrazolo[1,5-a]pyrazine-3-carbonyl)azetidin-3-yl)amino)-N-(5-(trifluoromethyl)pyridin-3-yl)benzamide, reference compound]			114 nM	311 nM
Cc1ccc(C(=O)Nc2cncc(C(F)(F)F)c2)cc1OC1CN(c2cncc3c2cnn3C)C1 [Example 169, 4-methyl-3-((1-(1-methyl-1H-pyrazolo[3,4-c]pyridin-4-yl)azetidin-3-yl)oxy)-N-(5-(trifluoromethyl)pyridin-3-yl)benzamide]	< 5 nM	5 to 25 nM		
Cc1ccc(C(=O)Nc2cncc(C(F)(F)F)c2)cc1OC1CN(c2cncc(-c3cnn(C)c3)c2)C1 [Example 143, 4-methyl-3-((1-(5-(1-methyl-1H-pyrazol-4-yl)pyridin-3-yl)azetidin-3-yl)oxy)-N-(5-(trifluoromethyl)pyridin-3-yl)benzamide]	< 5 nM	< 5 nM		
Cc1ccc(C(=O)Nc2cncc(C(F)(F)F)c2)cc1OC1CN(c2cncc(C(F)F)c2)C1 [Example 165, 3-((1-(5-(difluoromethyl)pyridin-3-yl)azetidin-3-yl)oxy)-4-methyl-N-(5-(trifluoromethyl)pyridin-3-yl)benzamide]	< 5 nM	5 to 25 nM		
Cc1ccc(C(=O)Nc2cc(C(C)(C)C)on2)cc1NC1CN(c2cnn3ccncc23)C1 [Example 150, N-(5-(tert-butyl)isoxazol-3-yl)-4-methyl-3-((1-(pyrazolo[1,5-a]pyrazin-3-yl)azetidin-3-yl)amino)benzamide]	5 to 25 nM	25 to 100 nM		
Cc1ccn2ncc(N3CC(Oc4cc(C(=O)Nc5cncc(C(F)(F)F)c5)ccc4C)C3)c2n1 [Example 167, 4-methyl-3-((1-(5-methylpyrazolo[1,5-a]pyrimidin-3-yl)azetidin-3-yl)oxy)-N-(5-(trifluoromethyl)pyridin-3-yl)benzamide]	< 5 nM	5 to 25 nM		
Cc1ccc(C(=O)Nc2cncc(C(F)(F)F)c2)cc1SC1CN(c2cnn3ccncc23)C1 [Example 178, 4-methyl-3-((1-(pyrazolo[1,5-a]pyrazin-3-yl)azetidin-3-yl)thio)-N-(5-(trifluoromethyl)pyridin-3-yl)benzamide]	< 5 nM	< 5 nM		
Cc1ccc(C(=O)Nc2cncc(C(F)(F)F)c2)cc1OC1CN(c2cnc3ccccn23)C1 [Example 137, 3-((1-(imidazo[1,2-a]pyridin-3-yl)azetidin-3-yl)oxy)-4-methyl-N-(5-(trifluoromethyl)pyridin-3-yl)benzamide]	< 5 nM	< 5 nM		
CC(=O)Nc1cncc(N2CC(Oc3cc(C(=O)Nc4cncc(C(F)(F)F)c4)ccc3C)C2)c1 [Example 145, 3-((1-(5-acetamidopyridin-3-yl)azetidin-3-yl)oxy)-4-methyl-N-(5-(trifluoromethyl)pyridin-3-yl)benzamide]	< 5 nM	< 5 nM		
CC(=O)Nc1ccn2ncc(N3CC(Oc4cc(C(=O)Nc5cncc(C(F)(F)F)c5)ccc4C)C3)c2n1 [Example 138, 3-((1-(5-acetamidopyrazolo[1,5-a]pyrimidin-3-yl)azetidin-3-yl)oxy)-4-methyl-N-(5-(trifluoromethyl)pyridin-3-yl)benzamide]	< 5 nM	5 to 25 nM		
4-methyl-3-((1-(pyrimidin-5-yl)azetidin-3-yl)thio)-N-(5-(trifluoromethyl)pyridin-3-yl)benzamide [Example 177]	5 to 25 nM	25 to 100 nM		
COc1ccc(C(=O)Nc2cncc(C(F)(F)F)c2)cc1NC1CN(c2cnn3ccncc23)C1 [Example 183, 4-methoxy-3-((1-(pyrazolo[1,5-a]pyrazin-3-yl)azetidin-3-yl)amino)-N-(5-(trifluoromethyl)pyridin-3-yl)benzamide]	< 5 nM	5 to 25 nM		
Cc1ccc(C(=O)Nc2cncc(C(F)(F)F)c2)cc1OC1CN(c2cnn3ccncc23)C1 [Example 136, 4-methyl-3-((1-(pyrazolo[1,5-a]pyrazin-3-yl)azetidin-3-yl)oxy)-N-(5-(trifluoromethyl)pyridin-3-yl)benzamide]	< 5 nM	< 5 nM		
Cc1ccc(C(=O)Nc2cc(C(C)(C)C)no2)cc1NC1CN(c2cnn3ccncc23)C1 [Example 149, N-(3-(tert-butyl)isoxazol-5-yl)-4-methyl-3-((1-(pyrazolo[1,5-a]pyrazin-3-yl)azetidin-3-yl)amino)benzamide]	5 to 25 nM	5 to 25 nM		
Cc1ccc(C(=O)Nc2cc(C(F)(F)F)ccc2Cl)cc1OC1CN(c2cnn3ccncc23)C1 [Example 160, N-(2-chloro-5-(trifluoromethyl)phenyl)-4-methyl-3-((1-(pyrazolo[1,5-a]pyrazin-3-yl)azetidin-3-yl)oxy)benzamide]	< 5 nM	5 to 25 nM		
Cc1ccc(C(=O)Nc2cncc(C(F)(F)F)c2)cc1C1CN(c2cnn3ccncc23)C1 [Example 184, 4-methyl-3-(1-(pyrazolo[1,5-a]pyrazin-3-yl)azetidin-3-yl)-N-(5-(trifluoromethyl)pyridin-3-yl)benzamide]	< 5 nM	5 to 25 nM		
Cc1ccc(C(=O)Nc2cccc(OC(F)(F)F)c2)cc1OC1CN(c2cnn3ccncc23)C1 [Example 161, 4-methyl-3-((1-(pyrazolo[1,5-a]pyrazin-3-yl)azetidin-3-yl)oxy)-N-(3-(trifluoromethoxy)phenyl)benzamide]	< 5 nM	< 5 nM		
Cc1ccc(C(=O)Nc2cncc(OC(F)(F)F)c2)cc1OC1CN(c2cnn3ccncc23)C1 [Example 157, 4-methyl-3-((1-(pyrazolo[1,5-a]pyrazin-3-yl)azetidin-3-yl)oxy)-N-(5-(trifluoromethoxy)pyridin-3-yl)benzamide]	< 5 nM	< 5 nM		
Cc1ccc(C(=O)Nc2cc(F)cc(C(F)(F)F)c2)cc1OC1CN(c2cnn3ccncc23)C1 [Example 162, N-(3-fluoro-5-(trifluoromethyl)phenyl)-4-methyl-3-((1-(pyrazolo[1,5-a]pyrazin-3-yl)azetidin-3-yl)oxy)benzamide]	< 5 nM	< 5 nM		

Source: US20260028328A1, “HETEROARYL DERIVATIVES AS DDRs INHIBITORS” (CHIESI FARMACEUTICI S.P.A., priority 2022, published 2026)
